Laboratory results from patent publication US12268690B2, “Treatments for mutations in acute myeloid leukemia” (OREGON HEALTH & SCIENCE UNIVERSITY, priority 2018, dated 2025).

Test system: freshly isolated mononuclear cells from AML samples
Assay: Ex vivo functional drug screen (MTS viability, AUC) on primary AML samples, compared by mutation or clinical group
Assay type: cell-based, human
Description: This panel contained graded concentrations of a drugs with activity against two-thirds of the tyrosine kinome as well as other non-tyrosine kinase pathways, including MAPKs, PI3K/AKT/mTOR, AMPK, ATM, Aurora kinases, CAMKs, CDKs, GSK3a/b, IκK, PKA, PKC, PLK1, and RAF. In addition, the library contained small molecule inhibitors with activity against the BCL2 family, BRD4, Hedgehog, HSP90, NOTCH/gamma-secretase, proteasome, survivin, STAT3, and WNT/beta-catenin. Drug sensitivity patterns were analyzed with respect to clinical and genetic features of tumors. We compared the average area-under-the curve (AUC) values for each drug between the de novo and transformed samples via a series of single factor ANOVAs. […] In addition, we analyzed the concordance of drug sensitivity patterns with respect to predicted target gene, gene family, or pathway for each drug. […] To create a global view of overall sensitivity or resistance of each case, we generated a heatmap of binary sensitive/resistant calls for each sample to each drug.
Correlation of drug sensitivity with mutational events was performed by assessing the range of sensitivity of cases with mutation of an individual gene (as well as co-occurring mutational events) versus cases with wild type sequence for that same gene. […] The difference in average drug sensitivity of mutant versus wild type cases for each drug/mutation pair was plotted on the horizontal axis of a volcano plot with a test for statistical significance of the comparison plotted on the vertical axis (corrected for multiple comparison false discovery rate^42; FIG. 4). […] To aid in discovery of potential mutational biomarkers of drug sensitivity, we plotted volcano plots that were specific to each individual drug (versus all possible mutational events) and for each individual gene (versus all possible drugs tested).
Ex vivo drug screens were performed on freshly isolated mononuclear cells from AML samples as previously described^41.
Ex vivo functional drug screens were performed on freshly isolated mononuclear cells from AML samples. […] Drug plates were created using inhibitors purchased from LC Laboratories and Selleck Chemicals and master stocks were reconstituted in DMSO and stored at −80° C. […] DMSO control wells and positive control wells containing a drug combination of Flavopiridol, Staurosporine and Velcade were placed on each plate, with the final concentration of DMSO ≤0.1% in all wells. Daughter plates were created using a V&P Scientific 384-well pin tool head operated by the Caliper Sciclone ALH 3000 and equipped with 0.457 mm diameter, 30 nanoliter, slotted stainless steel pins (cat num: FP1NS30). Daughter and destination plates were sealed with pealable thermal seals using a PlateLoc thermal sealer. Destination plates were stored at −20° C. for no more than three months and thawed immediately before use. Primary mononuclear cells were plated across single-agent inhibitor panels within 24 h of collection. […] After 3 d of culture at 37° C. in 5% CO2, MTS reagent (CellTiter96 AQueous One; Promega) was added, optical density was measured at 490 nm, and raw absorbance values were adjusted to a reference blank value and then used to determine cell viability (normalized to untreated control wells).
A given sample was run on one or more panels and within each panel, the majority of drugs were run without within-panel replicates. […] An additional set of ‘curve-free’ AUCs was computed for sample-inhibitor pairs run on multiple panels.
Based on the methodology used in our prior drug combination study^36, a probit regression was fit to all possible run groups using the model: (normalized_viability/100)˜1+log 10(concentration) Where for all groups there were N=7 dose-response measurements. The summary measures of curve fit were inspected and cutoffs were devised removing all runs with an AIC >12 and deviance >2.

Structure (SMILES): C[C@H](NC(=O)Cc1cc(F)cc(F)c1)C(=O)N[C@@H]1C(=O)N(C)c2ccccc2-c2ccccc21 [DBZ, N-[(1S)-2-[[(7S)-6,7-Dihydro-5-methyl-6-oxo-5H-dibenz[b,d]azepin-7-yl]amino]-1-methyl-2-oxoethyl]-3,5-difluorobenzeneacetamide]
- drug sensitivity mutant vs wild type (average difference in AUC; top left quadrant of volcano plot) (FLT3_ITD:IDH1): DBZ
- drug sensitivity mutant vs wild type (average difference in AUC; top left quadrant of volcano plot) (IDH2): DBZ
- drug sensitivity mutant vs wild type (average difference in AUC; top left quadrant of volcano plot) (NPM1): DBZ
- drug sensitivity mutant vs wild type (average difference in AUC; top left quadrant of volcano plot) (NPM1:IDH2): DBZ
- drug sensitivity mutant vs wild type (average difference in AUC; top left quadrant of volcano plot) (NPM1:SRSF2): DBZ
- drug sensitivity mutant vs wild type (average difference in AUC; top left quadrant of volcano plot) (NPM1:SRSF2:IDH2): DBZ

Structure (SMILES): O=C(NOCC1CC1)c1ccc(F)c(F)c1Nc1ccc(I)cc1Cl [CI-1040]
- drug sensitivity mutant vs wild type (average difference in AUC; top left quadrant of volcano plot) (DNMT3A:NRAS): CI-1040 (PD184352)
- drug sensitivity mutant vs wild type (average difference in AUC; top left quadrant of volcano plot) (NPM1:DNMT3A:NRAS): CI-1040
- drug sensitivity mutant vs wild type (average difference in AUC; top left quadrant of volcano plot) (NPM1:NRAS): CI-1040 (PD184352)
- drug sensitivity mutant vs wild type (average difference in AUC; top left quadrant of volcano plot) (NRAS): CI-1040

Structure (SMILES): CCCS(=O)(=O)Nc1ccc(F)c(C(=O)c2c[nH]c3ncc(Cl)cc23)c1F [PLX-4720, N-(3-(5-chloro-1H-pyrrolo[2,3-b]pyridine-3-carbonyl)-2,4-difluorophenyl)propane-1-sulfonamide]
- drug sensitivity mutant vs wild type (average difference in AUC; top left quadrant of volcano plot) (CBFB.MYH11): PLX-4720

Structure (SMILES): CC(C)(C)c1ccc(S(=O)(=O)/C=C/C#N)cc1 [Bay 11-7085]
- drug sensitivity mutant vs wild type (average difference in AUC; top left quadrant of volcano plot) (SMC1A): Bay 11-

Structure (SMILES): Nc1cccc2c1CN(C1CCC(=O)NC1=O)C2=O (centres unmarked) [Lenalidomide]
- drug sensitivity mutant vs wild type (average difference in AUC; top left quadrant of volcano plot) (NPM1): Lenalidomide
- drug sensitivity mutant vs wild type (average difference in AUC; top left quadrant of volcano plot) (NPM1:SRSF2): lenalidomide

Structure (SMILES): CC(C)(C)c1cc(NC(=O)Nc2ccc(-c3cn4c(n3)sc3cc(OCCN5CCOCC5)ccc34)cc2)no1 [Quizartinib]
- drug sensitivity mutant vs wild type (average difference in AUC; top left quadrant of volcano plot) (NPM1): quizartinib
- drug sensitivity mutant vs wild type (average difference in AUC; top left quadrant of volcano plot) (NPM1:DNMT3A): Quizartinib
- drug sensitivity mutant vs wild type (average difference in AUC; top left quadrant of volcano plot) (NPM1:IDH2): quizartinib
- drug sensitivity mutant vs wild type (average difference in AUC; top left quadrant of volcano plot) (NPM1:SRSF2): quizartinib

Structure (SMILES): COc1cc2c(Oc3ccc(NC(=O)C4(C(=O)Nc5ccc(F)cc5)CC4)cc3F)ccnc2cc1OCCCN1CCOCC1 [Foretinib]
- drug sensitivity mutant vs wild type (average difference in AUC; top left quadrant of volcano plot) (FLT3): Foretinib (XL880)
- drug sensitivity mutant vs wild type (average difference in AUC; top left quadrant of volcano plot) (FLT3_ITD:TET2:DNMT3A): Foretinib
- drug sensitivity mutant vs wild type (average difference in AUC; top left quadrant of volcano plot) (FLT3_ITD:WT1): foretinib
- drug sensitivity mutant vs wild type (average difference in AUC; top left quadrant of volcano plot) (IDH2): Foretinib
- drug sensitivity mutant vs wild type (average difference in AUC; top left quadrant of volcano plot) (NPM1): Foretinib
- drug sensitivity mutant vs wild type (average difference in AUC; top left quadrant of volcano plot) (NPM1:DNMT3A): foretinib
- drug sensitivity mutant vs wild type (average difference in AUC; top left quadrant of volcano plot) (NPM1:FLT3): Foretinib
- drug sensitivity mutant vs wild type (average difference in AUC; top left quadrant of volcano plot) (NPM1:FLT3_ITD): foretinib
- drug sensitivity mutant vs wild type (average difference in AUC; top left quadrant of volcano plot) (NPM1:FLT3_ITD:DNMT3A): foretinib
- drug sensitivity mutant vs wild type (average difference in AUC; top left quadrant of volcano plot) (NPM1:SRSF2): Foretinib
- drug sensitivity mutant vs wild type (average difference in AUC; top left quadrant of volcano plot) (SMC1A): foretinib

Structure (SMILES): O=c1ncn2nc(Sc3ccc(F)cc3F)ccc2c1-c1c(Cl)cccc1Cl [vx-745]
- drug sensitivity mutant vs wild type (average difference in AUC; top left quadrant of volcano plot) (FLT3_ITD): vx-745
- drug sensitivity mutant vs wild type (average difference in AUC; top left quadrant of volcano plot) (FLT3_ITD:ASXL1): vx-745
- drug sensitivity mutant vs wild type (average difference in AUC; top left quadrant of volcano plot) (NPM1:IDH2): vx-
- drug sensitivity mutant vs wild type (average difference in AUC; top left quadrant of volcano plot) (NPM1:SRSF2): vx-745

Structure (SMILES): COc1cc2nccc(Oc3ccc(NC(=O)Nc4cc(C)on4)c(Cl)c3)c2cc1OC [Tivozanib]
- drug sensitivity mutant vs wild type (average difference in AUC; top left quadrant of volcano plot) (CELSR2): Tivozanib (AV-951)
- drug sensitivity mutant vs wild type (average difference in AUC; top left quadrant of volcano plot) (FLT3_ITD): tivozanib
- drug sensitivity mutant vs wild type (average difference in AUC; top left quadrant of volcano plot) (NPM1): Tivozanib
- drug sensitivity mutant vs wild type (average difference in AUC; top left quadrant of volcano plot) (NPM1:FLT3_ITD): Tivozanib
- drug sensitivity mutant vs wild type (average difference in AUC; top left quadrant of volcano plot) (NPM1:FLT3_ITD:DNMT3A): tivozanib

Structure (SMILES): CC[C@H](CO)Nc1nc(NCc2ccccc2)c2ncn(C(C)C)c2n1 [Roscovitine]
- drug sensitivity mutant vs wild type (average difference in AUC; top left quadrant of volcano plot) (FLT3_ITD): roscovitine
- drug sensitivity mutant vs wild type (average difference in AUC; top left quadrant of volcano plot) (NPM1:IDH1): roscovitine
- drug sensitivity mutant vs wild type (average difference in AUC; top left quadrant of volcano plot) (ZRSR2): Roscovitine

Structure (SMILES): Cc1ccc(NC(=O)c2ccc(CN3CCN(C)CC3)cc2)cc1Nc1nc(-c2cccnc2)cs1 [Masitinib]
- drug sensitivity mutant vs wild type (average difference in AUC; top left quadrant of volcano plot) (FLT3_ITD:TET2): masitinb
- drug sensitivity mutant vs wild type (average difference in AUC; top left quadrant of volcano plot) (FLT3_ITD_IHD2): masitinib
- drug sensitivity mutant vs wild type (average difference in AUC; top left quadrant of volcano plot) (IDH2): Masitinib
- drug sensitivity mutant vs wild type (average difference in AUC; top left quadrant of volcano plot) (NPM1:SRSF2): Masitinb
- drug sensitivity mutant vs wild type (average difference in AUC; top left quadrant of volcano plot) (SMC1A): Masitinib

Structure (SMILES): CC(C)n1nc(-c2ccc3oc(N)nc3c2)c2c(N)ncnc21 [INK-128]
- drug sensitivity mutant vs wild type (average difference in AUC; top left quadrant of volcano plot) (FLT3_ITD): INK-128
- drug sensitivity mutant vs wild type (average difference in AUC; top left quadrant of volcano plot) (NPM1:FLT3_ITD): ink-128

Structure (SMILES): C[C@@H]1CCN(C(=O)CC#N)C[C@@H]1N(C)c1ncnc2[nH]ccc12 [Tofacitinib]
- sensitivity to JAK kinase inhibitors, mutant versus wild type (average AUC difference, one-way ANOVA) (BCOR mutation alone or co-mutation of BCOR with DNMT3A or SRSF2): no difference in sensitivity
- drug sensitivity mutant vs wild type (average difference in AUC; top left quadrant of volcano plot) (ZRSR2): Tofacitinib
- sensitivity to JAK kinase inhibitors, mutant versus wild type (average AUC difference, one-way ANOVA) (co-mutation of BCOR with RUNX1): increased sensitivity

Structure (SMILES): CS(=O)(=O)CCNCc1ccc(-c2ccc3ncnc(Nc4ccc(OCc5cccc(F)c5)c(Cl)c4)c3c2)o1 [Lapatinib]
- drug sensitivity mutant vs wild type (average difference in AUC; top left quadrant of volcano plot) (FLT3_ITD_IHD2): lapitinib
- drug sensitivity mutant vs wild type (average difference in AUC; top left quadrant of volcano plot) (NPM1): Lapatinib
- drug sensitivity mutant vs wild type (average difference in AUC; top left quadrant of volcano plot) (NPM1:FLT3_ITD): lapatinib
- drug sensitivity mutant vs wild type (average difference in AUC; top left quadrant of volcano plot) (NPM1:IDH2): Lapatinib
- drug sensitivity mutant vs wild type (average difference in AUC; top left quadrant of volcano plot) (NPM1:SRSF2): Lapatinib
- drug sensitivity mutant vs wild type (average difference in AUC; top left quadrant of volcano plot) (SMC1A): lapatinib

Structure (SMILES): COc1cc(N2CCC(N3CCN(C)CC3)CC2)ccc1Nc1ncc(Cl)c(Nc2ccccc2S(=O)(=O)C(C)C)n1 [NVP-TAE684]
- drug sensitivity mutant vs wild type (average difference in AUC; top left quadrant of volcano plot) (FLT3_ITD): NVP-TAE684
- drug sensitivity mutant vs wild type (average difference in AUC; top left quadrant of volcano plot) (FLT3_ITD:DNMT3A): NVP-TAE684
- drug sensitivity mutant vs wild type (average difference in AUC; top left quadrant of volcano plot) (FLT3_ITD:FLT3): nvp-TAE684
- drug sensitivity mutant vs wild type (average difference in AUC; top left quadrant of volcano plot) (FLT3_ITD:RUNX1): nvp-TAE684
- drug sensitivity mutant vs wild type (average difference in AUC; top left quadrant of volcano plot) (FLT3_ITD:TET2): nvp-tae684
- drug sensitivity mutant vs wild type (average difference in AUC; top left quadrant of volcano plot) (FLT3_ITD_IHD2): Nvp-TAE684
- drug sensitivity mutant vs wild type (average difference in AUC; top left quadrant of volcano plot) (IDH2): NVP-TAE684
- drug sensitivity mutant vs wild type (average difference in AUC; top left quadrant of volcano plot) (IDH2:FLT3): NVP-TAE684
- drug sensitivity mutant vs wild type (average difference in AUC; top left quadrant of volcano plot) (NPM1): NVP-TAE684
- drug sensitivity mutant vs wild type (average difference in AUC; top left quadrant of volcano plot) (NPM1:FLT3): NVP-TAE684
- drug sensitivity mutant vs wild type (average difference in AUC; top left quadrant of volcano plot) (NPM1:FLT3_ITD): nvp-tae684
- drug sensitivity mutant vs wild type (average difference in AUC; top left quadrant of volcano plot) (NPM1:FLT3_ITD:DNMT3A): NVP-TAE684
- drug sensitivity mutant vs wild type (average difference in AUC; top left quadrant of volcano plot) (NPM1:IDH2): NVP-TAE684
- drug sensitivity mutant vs wild type (average difference in AUC; top left quadrant of volcano plot) (NPM1:SRSF2): nvp-TAE684
- drug sensitivity mutant vs wild type (average difference in AUC; top left quadrant of volcano plot) (NPM1:SRSF2:IDH2): NVP-

Structure (SMILES): Nc1nc(Nc2ccc(S(N)(=O)=O)cc2)nn1C(=O)c1c(F)cccc1F [JNJ-7706621, 4-((5-amino-1-(2,6-difluorobenzoyl)-1H-1,2,4-triazol-3-yl)amino)benzenesulfonamide]
- drug sensitivity mutant vs wild type (average difference in AUC; top left quadrant of volcano plot) (NPM1:DNMT3A): JNJ-7706621
- drug sensitivity mutant vs wild type (average difference in AUC; top left quadrant of volcano plot) (NPM1:IDH1): JNJ-7706621
